Test results from patent US4954437A, “Cell encoding recombinant human erythropoietin” (Integrated Genetics, Inc., priority 1986, dated 1990).
Square brackets hold non-standard residues; d marks the D form. Peptide text beside a SMILES is read from it. * marks the point of attachment. Sta = CC(C)C[C@H](N)[C@@H](O)CC(=O)O; Isovaleryl = CC(C)CC(=O)*

Assays:
[1] = system: proteases that are active at PH5.0; assay: Protease inhibitors preventing EPO degradation at pH5.0 in 10X concentrated EPO medium, assayed by RIA; format: biochemical
Experimental: (§1) The addition of a dye column to step 1 gives some additional purification and, more importantly, removes contaminating proteases from EPO and consequently allows higher EPO recoveries at the S-Sepharose Fast Flow step. The clarified media was loaded on a Blue Trisacryl-M column (Pharmacia) equilibrated with 10 mM NaPO4 pH6.0, 150 mM NaCl and eluted with a linear salt gradient of 0.15 to 2.5 M NaCl in 10 mM NaPO4 pH6.0 and then flow-dialyzed into 50 mM Na Acetate, pH5.0 containing 15mM NaCl. The recovery of EPO from the Blue Trisacryl column was almost complete and the recovery on the following S-Sepharose Fast Flow column was 86% compared to 60% in example 1. […] This degradation seems to be caused by proteases that are active at PH5.0. The improved yields in step 2 as illustrated in this example can be attributed to the separation of proteases from the EPO protein by the Blue Trisacryl column. (Other commercially available dyes can also be used.)
Protease inhibitors can also be added to the conditioned medium in order to improve EPO yields. Several commercially available protease inhibitors were tested to see if they could prevent EPO degradation at pH5.0. 10X concentrated (Step 1) EPO medium was diluted 1:10 in 50mM Na Acetate, pH5.0 and then incubated at 37° C. with or without protease inhibitors at a concentration of 5 micrograms/ml. […]

[2] = system: rat bone marrow cells; assay: In vitro biological assays (3H-thy uptake assay, 59Fe incorporation into rat bone marrow cells); format: cell-based; conditions: purified rEPO from CES9dog conditioned medium
Experimental: Foci, representing BPV transformed C127 cells, were detectable 10-14 days after transfection. Supernatants from Plates containing transformants were assayed 17 days after transfection by the ^3 H-thy uptake assay (Krystal 1983, Exp. Hematol., 11/7, 649) and found to contain EPO. 21/2 to 3 weeks after transfection, foci were isolated by the cloning ring method and transferred to T-25 flasks. After the cells reached approximately 20% confluency, the supernatants were tested for EPO production by the ^3 H-thy uptake assay. A total of 76 cell lines (15 CEM, 35 CES and 26 CEG transformants) were transferred into T-75 flasks.
When the cells were confluent, the supernatants were assayed for EPO expression and the cells were counted and frozen. To test the reproducibility and stability of these cell lines, the 21 highest producing cell lines were thawed and rescreened for 24 hours expression levels on a per cell basis. […] Representative 24 hour culture fluids from cell lines CES9dog and CEG4d in T-75 flasks contained 600U/ml and 800U/ml of rEPO as measured by the ^3 H-thy uptake assay using human urinary EPO as a standard and 490 and 540U/ml when measured by the ^59 Fe incorporation assay into rat bone marrow cells in vitro (Goldwasser et al., 1975, Endocrinology 97:315.). […]

[3] = Degradation of EPO incubated at 37° C. under mildly acidic conditions at pH5.0; format: physicochemical; conditions: 10X concentrated medium or partially purified step 2 material
Experimental: as §1

[4] = system: Polycythemic mouse; assay: Polycythemic mouse assay (in vivo biological assay); conditions: for biological activity in in vivo assays: purified rEPO from CES9dog conditioned medium
Experimental: When the cells were confluent, the supernatants were assayed for EPO expression and the cells were counted and frozen. To test the reproducibility and stability of these cell lines, the 21 highest producing cell lines were thawed and rescreened for 24 hours expression levels on a per cell basis. The five highest producers (3CES and 2CEG transformants) were chosen and expanded into roller bottles to test for growth and production properties. Representative 24 hour culture fluids from cell lines CES9dog and CEG4d in T-75 flasks contained 600U/ml and 800U/ml of rEPO as measured by the ^3 H-thy uptake assay using human urinary EPO as a standard and 490 and 540U/ml when measured by the ^59 Fe incorporation assay into rat bone marrow cells in vitro (Goldwasser et al., 1975, Endocrinology 97:315.). These samples were also active in vivo in the Polycythemic mouse assay as described by Cotes et al., 1961, Nature 191:1065.

Row | Molecule | effect on EPO immunoactivity at pH5.0 ([1]; 5 micrograms/ml, 50mM Na Acetate pH5.0, 37° C., over 29 hours, RIA) | IC50 (the concentration at which 50% of the proteases are inhibited) ([1]; 10X concentrated medium, pH5.0, 37° C., 25 hours, RIA (FIG. 9)) | biological activity in in vitro assays [2] | biological activity in in vitro assays ([2]; listed as EPO) | t1/2 of degradation [3] | activity in vivo in the Polycythemic mouse assay ([4]; 24 hour culture fluids from cell lines CES9dog and CEG4d) | biological activity in in vivo assays [4] | biological activity in in vivo assays ([4]; listed as EPO)
1 | CC(C)CC(=O)N[C@H](C(=O)N[C@H](C(=O)N[C@@H](CC(C)C)[C@@H](O)CC(=O)N[C@@H](C)C(=O)N[C@@H](CC(C)C)[C@@H](O)CC(=O)O)C(C)C)C(C)C [Pepstatin, pepstatin] (Isovaleryl-VV[Sta]A[Sta]-OH) | significant stabilizing effect | approximately 0.02 ug/ml |  |  |  |  |  | 
2 | rEPO: recombinant human erythropoietin produced by BPV transformed mouse C127 cells, N- and O-glycosylated |  |  | high biological activity | high potency | approx. 4 h | active | high biological activity | high potency
